# Patent US11505536B2, “Dihydroorotate dehydrogenase inhibitors” (Janssen Biotech, Inc., priority 2019, dated 2022)
# Key:
# [1] = target: human DHODH (Homo sapiens (Human), UniProt Q02127); assay: DHODH Enzymatic Assay; type: biochemical; conditions: purified human DHODH, DCIP absorbance, end-point mode; read-out: hDHODH IC50
# Procedure: The following assay is referred to herein as the “DHODH Enzymatic Assay.” To detect DHODH enzyme activities, dichloroindophenol (DCIP) is added as the final electron acceptor in the assay. DCIP can accept electrons from the reduced coenzyme Q generated in the assay, or from dihydroorotate (DHO) via FMN by binding presumably to the ubiquinone pocket. DCIP solutions are blue, with an intense absorbance around 600 nm, but becomes colorless upon reduction (J. Biol. Chem. (1986) 261, 11386). The assay buffer contained […], pH 7.5, 150 mM NaCl, 0.5 mM EDTA, and 0.1% Triton X-100 in MilliQ water. Substrate consisting of 20 mM DHO, 5 mM CoQ6, and 1 mM DCIP in assay buffer, initiates the reaction. The assay is run in end-point mode by quenching the reaction with the potent DHODH inhibitor brequinar. Absorbance measurements were obtained using the BMG Phera Star plate-reading spectrophotomer. Purified human DHODH was purchased from Proteros (cat. No. PR-0044). Chemicals were purchased from Sigma-Aldrich, Teknova, and Avanti Polar Lipids. Liquid handling was performed using Labcyte Echo and Formulatrix Tempest.
# [2] = system: MOLM-13 cells (human acute myeloid leukemia cells); assay: MOLM-13 Cellular Assay; type: cell-based; conditions: 72 hours exposure, cell viability by CellTiter-Glo
# Procedure: The following assay is referred to herein as the “MOLM-13 Cellular Assay.” MOLM-13 cells (human acute myeloid leukemia cells) were obtained from DSMZ and were maintained in RPMI 1640+Glutamax+25 mM HEPES (Invitrogen, catalog number 72400) supplemented with 10% heat inactivated fetal bovine serum (FBS; Invitrogen, catalog number 16140). The day prior to assay set-up, cells were pelleted, resuspended in fresh media, counted, and cells were plated at 0.4×10^6 cell/mL in a T150 flask. On the day of the assay, cells were pelleted, resuspend in fresh media, counted and seeded at 5,000 cells/well in white opaque 96-well tissue culture treated microplates (Perkin Elmer, catalog number 6005680). Cells were exposed to different concentrations of test compounds at 37° C., 5% CO2 for 72 hours immediately after seeding. Cell viability was acquired on a Perkin Elmer Envision 2104 multilabel reader using the CellTiter-Glo assay (Promega) according to the manufacturer's instructions.
# human DHODH, sequence (Q02127 whole entry): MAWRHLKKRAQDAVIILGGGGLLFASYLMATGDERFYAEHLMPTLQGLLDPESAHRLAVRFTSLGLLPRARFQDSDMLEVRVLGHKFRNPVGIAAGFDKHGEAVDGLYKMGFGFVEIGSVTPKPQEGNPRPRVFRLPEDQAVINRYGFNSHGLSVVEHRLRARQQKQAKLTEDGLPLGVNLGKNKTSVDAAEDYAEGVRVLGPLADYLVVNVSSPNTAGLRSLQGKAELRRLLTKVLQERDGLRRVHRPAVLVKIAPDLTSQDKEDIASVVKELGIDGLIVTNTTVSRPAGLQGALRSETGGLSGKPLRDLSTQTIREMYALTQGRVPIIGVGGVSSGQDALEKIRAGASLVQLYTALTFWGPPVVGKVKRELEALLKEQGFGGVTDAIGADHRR
SMILES,IC50 [1] [nM],"IC50 ([2]; Homo sapiens, MOLM-13, 72 h) [nM]",IC50 [2] [nM]
"CCn1c(CO)nn(-c2ccc3c(=O)n(-c4c(F)cccc4Cl)cc(C4(C)CC4)c3c2)c1=O [Example 24, 2-(2-Chloro-6-fluorophenyl)-6-(4-ethyl-3-(hydroxymethyl)-5-oxo-4,5-dihydro-1H-1,2,4-triazol-1-yl)-4-(1-methylcyclopropyl)isoquinolin-1(2H)-one]",1.65,1,
"CCn1c(CO)nn(-c2ccc3c(=O)n(-c4ccccc4C)cc(N(C)C)c3c2)c1=O [Example 26, 4-(Dimethylamino)-6-(4-ethyl-3-(hydroxymethyl)-5-oxo-4,5-dihydro-1H-1,2,4-triazol-1-yl)-2-(o-tolyl)isoquinolin-1(2H)-one]",46.5,20,
"CCn1c(CO)nn(-c2cc3c(C(C)C)cn(-c4c(C)n[nH]c4Cl)c(=O)c3cc2F)c1=O [Example 31, 2-(5-Chloro-3-methyl-1H-pyrazol-4-yl)-6-(4-ethyl-3-(hydroxymethyl)-5-oxo-4,5-dihydro-1H-1,2,4-triazol-1-yl)-7-fluoro-4-isopropylisoquinolin-1(2H)-one]",0.764,6,
"C=C(C)c1cn(-c2ccccc2C)c(=O)c2cc(F)c(-n3nc(CO)n(CC)c3=O)nc12 [Example 32, 2-(4-Ethyl-3-(hydroxymethyl)-5-oxo-4,5-dihydro-1H-1,2,4-triazol-1-yl)-3-fluoro-8-(prop-1-en-2-yl)-6-(o-tolyl)-1,6-naphthyridin-5(6H)-one]",1.01,2,
"CCn1c(CO)nn(-c2nc3c(C)nn(-c4ccccc4C)c(=O)c3cc2F)c1=O [Example 33, 2-(4-Ethyl-3-(hydroxymethyl)-5-oxo-4,5-dihydro-1H-1,2,4-triazol-1-yl)-3-fluoro-8-methyl-6-(o-tolyl)pyrido[2,3-d]pyridazin-5(6H)-one]",240,> 100,
"CCn1c(CO)nn(-c2nc3c(C(C)C)nn(-c4ccccc4C)c(=O)c3cc2F)c1=O [Example 34, 2-(4-Ethyl-3-(hydroxymethyl)-5-oxo-4,5-dihydro-1H-1,2,4-triazol-1-yl)-3-fluoro-8-isopropyl-6-(o-tolyl)pyrido[2,3-d]pyridazin-5(6H)-one]",1.97,4,
"C=C(C)c1cn(-c2c(F)cccc2Cl)c(=O)c2cc(F)c(-n3nc(CO)n(CC)c3=O)nc12 [Example 35, 6-(2-Chloro-6-fluorophenyl)-2-(4-ethyl-3-(hydroxymethyl)-5-oxo-4,5-dihydro-1H-1,2,4-triazol-1-yl)-3-fluoro-8-(prop-1-en-2-yl)-1,6-naphthyridin-5(6H)-one]",1.15,1,
"CCn1c(CO)nn(-c2nc3c(C(C)C)cn(-c4c(F)cccc4Cl)c(=O)c3cc2F)c1=O [Example 36, 6-(2-Chloro-6-fluorophenyl)-2-(4-ethyl-3-(hydroxymethyl)-5-oxo-4,5-dihydro-1H-1,2,4-triazol-1-yl)-3-fluoro-8-isopropyl-1,6-naphthyridin-5(6H)-one]",0.356,0.4,
"CCn1c(CO)nn(-c2nc3c([C@H](C)C(F)(F)F)cn(-c4ccccc4C)c(=O)c3cc2F)c1=O [Example 37, (S)-2-(4-Ethyl-3-(hydroxymethyl)-5-oxo-4,5-dihydro-1H-1,2,4-triazol-1-yl)-3-fluoro-6-(o-tolyl)-8-(1,1,1-trifluoropropan-2-yl)-1,6-naphthyridin-5(6H)-one]",1.88,3,
"CCn1c(CO)nn(-c2nc3c([C@@H](C)C(F)(F)F)cn(-c4ccccc4C)c(=O)c3cc2F)c1=O [Example 38, (R)-2-(4-Ethyl-3-(hydroxymethyl)-5-oxo-4,5-dihydro-1H-1,2,4-triazol-1-yl)-3-fluoro-6-(o-tolyl)-8-(1,1,1-trifluoropropan-2-yl)-1,6-naphthyridin-5(6H)-one]",0.464,0.5,
"CCn1c(CO)nn(-c2cc3c(C(C)C)cn(-c4scnc4C)c(=O)c3cc2F)c1=O [Example 39, 6-(4-Ethyl-3-(hydroxymethyl)-5-oxo-4,5-dihydro-1H-1,2,4-triazol-1-yl)-7-fluoro-4-isopropyl-2-(4-methylthiazol-5-yl)isoquinolin-1(2H)-one]",13,40,

# Continued, values first:
IC50 [1] [nM],"IC50 ([2]; Homo sapiens, MOLM-13, 72 h) [nM]",IC50 [2] [nM],SMILES
0.802,0.8,,"CCn1c(CO)nn(-c2nc3c(C(C)C)cn(-c4ccccc4C)c(=O)c3cc2F)c1=O [Example 40, 2-(4-Ethyl-3-(hydroxymethyl)-5-oxo-4,5-dihydro-1H-1,2,4-triazol-1-yl)-3-fluoro-8-isopropyl-6-(o-tolyl)-1,6-naphthyridin-5(6H)-one]"
2.98,2,,"CCn1c(CO)nn(-c2cc3c(C(C)C)cn(-c4cc(C)ccc4F)c(=O)c3cc2F)c1=O [Example 41, 6-(4-Ethyl-3-(hydroxymethyl)-5-oxo-4,5-dihydro-1H-1,2,4-triazol-1-yl)-7-fluoro-2-(2-fluoro-5-methylphenyl)-4-isopropylisoquinolin-1(2H)-one]"
1.69,0.9,,"C=C(C)c1cn(-c2cc(C)ccc2F)c(=O)c2cc(F)c(-n3nc(CO)n(CC)c3=O)cc12 [Example 42, 6-(4-Ethyl-3-(hydroxymethyl)-5-oxo-4,5-dihydro-1H-1,2,4-triazol-1-yl)-7-fluoro-2-(2-fluoro-5-methylphenyl)-4-(prop-1-en-2-yl)isoquinolin-1(2H)-one]"
0.917,0.4,,"C=C(C)c1cn(-c2cc(C)ccc2Cl)c(=O)c2cc(F)c(-n3nc(CO)n(CC)c3=O)cc12 [Example 43, 2-(2-Chloro-5-methylphenyl)-6-(4-ethyl-3-(hydroxymethyl)-5-oxo-4,5-dihydro-1H-1,2,4-triazol-1-yl)-7-fluoro-4-(prop-1-en-2-yl)isoquinolin-1(2H)-one]"
2.22,0.7,,"C=C(C)c1cn(-c2cc(OC)ccc2F)c(=O)c2cc(F)c(-n3nc(CO)n(CC)c3=O)cc12 [Example 44, 6-(4-Ethyl-3-(hydroxymethyl)-5-oxo-4,5-dihydro-1H-1,2,4-triazol-1-yl)-7-fluoro-2-(2-fluoro-5-methoxyphenyl)-4-(prop-1-en-2-yl)isoquinolin-1(2H)-one]"
1.41,0.3,,"C=C(C)c1cn(-c2ccccc2Cl)c(=O)c2cc(F)c(-n3nc(CO)n(CC)c3=O)cc12 [Example 45, 2-(2-Chlorophenyl)-6-(4-ethyl-3-(hydroxymethyl)-5-oxo-4,5-dihydro-1H-1,2,4-triazol-1-yl)-7-fluoro-4-(prop-1-en-2-yl)isoquinolin-1(2H)-one]"
0.746,0.3,,"C=C(C)c1cn(-c2ccccc2C)c(=O)c2cc(F)c(-n3nc(CO)n(CC)c3=O)cc12 [Example 46, 6-(4-Ethyl-3-(hydroxymethyl)-5-oxo-4,5-dihydro-1H-1,2,4-triazol-1-yl)-7-fluoro-4-(prop-1-en-2-yl)-2-(o-tolyl)isoquinolin-1(2H)-one]"
1.21,0.7,,"C=C(C)c1cn(-c2cc(OC)ccc2Cl)c(=O)c2cc(F)c(-n3nc(CO)n(CC)c3=O)cc12 [Example 47, 2-(2-Chloro-5-methoxyphenyl)-6-(4-ethyl-3-(hydroxymethyl)-5-oxo-4,5-dihydro-1H-1,2,4-triazol-1-yl)-7-fluoro-4-(prop-1-en-2-yl)isoquinolin-1(2H)-one]"
1.09,2,,"CCn1c(CO)nn(-c2cc3c(C(C)C)cn(-c4nc(OC)ccc4Cl)c(=O)c3cc2F)c1=O [Example 49, 2-(3-Chloro-6-methoxypyridin-2-yl)-6-(4-ethyl-3-(hydroxymethyl)-5-oxo-4,5-dihydro-1H-1,2,4-triazol-1-yl)-7-fluoro-4-isopropylisoquinolin-1(2H)-one]"
2.75,7,,"CCn1c(CO)nn(-c2cc3c(C(C)C)cn(-c4c(C)ccnc4OC)c(=O)c3cc2F)c1=O [Example 50, 6-(4-Ethyl-3-(hydroxymethyl)-5-oxo-4,5-dihydro-1H-1,2,4-triazol-1-yl)-7-fluoro-4-isopropyl-2-(2-methoxy-4-methylpyridin-3-yl)isoquinolin-1(2H)-one]"
0.267,≤ 0.2,0.1,"C=C(C)c1cn(-c2c(F)ccc(OC)c2Cl)c(=O)c2cc(F)c(-n3nc(CO)n(CC)c3=O)cc12 [Example 51, 2-(2-Chloro-6-fluoro-3-methoxyphenyl)-6-(4-ethyl-3-(hydroxymethyl)-5-oxo-4,5-dihydro-1H-1,2,4-triazol-1-yl)-7-fluoro-4-(prop-1-en-2-yl)isoquinolin-1(2H)-one]"
